Source: patent US4393228A, “Epoxysuccinic acid derivatives” (Taisho Pharmaceutical Co., Ltd., priority 1977, dated 1983)
Structures can show the parent of a compound that is named as a salt.

Molecular target: T1, papain (Carica papaya, UniProt P00784)
T1 construct: purchased Sigma Chem. Co
T1 sequence (P00784 134-345): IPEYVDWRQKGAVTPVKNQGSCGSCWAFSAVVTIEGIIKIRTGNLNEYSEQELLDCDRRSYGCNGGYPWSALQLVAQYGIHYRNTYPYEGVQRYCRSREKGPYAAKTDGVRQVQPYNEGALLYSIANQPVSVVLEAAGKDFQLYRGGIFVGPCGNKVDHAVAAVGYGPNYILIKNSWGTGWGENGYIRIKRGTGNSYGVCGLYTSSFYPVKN
Assay: Papain inhibitory activity (milk casein digestion)
Assay type: biochemical
Details: papain 80 μg/ml 0.5 ml, cysteine, pH 6.8, 1% milk casein, 40° C., 10 minutes
Procedure, shortened: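 Papain (80 μg/ml stock) preincubated 15 min at 40 °C with inhibitor, cysteine/EDTA activator and phosphate buffer pH 6.8. Then 1% milk casein digested 10 min at 40 °C, stopped with trichloroacetic acid and filtered; filtrate absorbance at 280 nm gives percent inhibition versus no-inhibitor control.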

## CC(C)OC(=O)C1OC1C(=O)N[C@@H](CCCCNC(=O)OCc1ccccc1)C(=O)OCc1ccccc1 (stereo partly drawn) [EP-180, N^α -(3-iso-propyloxycarbonyloxirane-2-carbonyl)-N^ε -carbobenzoxy-L-lysine benzyl ester]
  ID50 (amount of inhibitor for 50% inhibition): 9.76 γ

## Cc1ccc(COC(=O)C2OC2C(=O)N[C@@H](CCCCNC(=O)OCc2ccccc2)C(=O)OCc2ccccc2)cc1 (stereo partly drawn) [EP-181, N^α -(3-p-methylbenzyloxycarbonyloxirane-2-carbonyl)-N^ε -carbobenzoxy-L-lysine benzyl ester]
  ID50 (amount of inhibitor for 50% inhibition): 6.59 γ

## O=C(NCCC[C@H](NC(=O)C1OC1C(=O)OCc1ccccc1)C(=O)OCc1ccccc1)OCc1ccccc1 (stereo partly drawn) [EP-182, N^α -(3-benzyloxycarbonyloxirane-2-carbonyl)-N^δ -carbobenzoxy-L-ornithine benzyl ester]
  ID50 (amount of inhibitor for 50% inhibition): 5.95 γ

## CCCCOC(=O)C1OC1C(=O)N[C@@H](CCCNC(=O)OCc1ccccc1)C(=O)OCc1ccccc1 (stereo partly drawn) [EP-183, N^α -(3-n-buthoxycarbonyloxirane-2-carbonyl)-N^δ -carbobenzoxy-L-ornithine benzyl ester]
  ID50 (amount of inhibitor for 50% inhibition): 4.46 γ

## COC(=O)[C@H](CCCNC(=N)N[N+](=O)[O-])NC(=O)C1OC1C(=O)OCc1ccccc1 (stereo partly drawn) [EP-184, N^α -(3-benzyloxycarbonyloxirane-2-carbonyl)-N^G -nitro-L-arginine methyl ester]
  ID50 (amount of inhibitor for 50% inhibition): 2.91 γ

## CCOC(=O)C1OC1C(=O)N[C@@H](Cc1c[nH]cn1)C(=O)OC (stereo partly drawn) [EP-185, N^α -(3-ethoxycarbonyloxirane-2-carbonyl)-L-histidine methyl ester]
  ID50 (amount of inhibitor for 50% inhibition): 14.05 γ

## CCOC(=O)C1OC1C(=O)N[C@@H](CO)C(=O)OCC (stereo partly drawn) [EP-186, N^α -(3-ethoxycarbonyloxirane-2-carbonyl)-L-serine ethyl ester]
  ID50 (amount of inhibitor for 50% inhibition): 23.15 γ

## O=C(NCCCC[C@H](NC(=O)C1OC1C(=O)OCCc1ccccc1)C(=O)OCc1ccccc1)OCc1ccccc1 (stereo partly drawn) [EP-187, N^α -(3-phenethyloxycarbonyloxirane-2-carbonyl)-N^ε -carbobenzoxy-L-lysine benzyl ester]
  ID50 (amount of inhibitor for 50% inhibition): 1.40 γ

## O=C(NCCCC[C@H](NC(=O)C1OC1C(=O)OCCCc1ccccc1)C(=O)OCc1ccccc1)OCc1ccccc1 (stereo partly drawn) [EP-188, N^α -[3-(3'-phenylpropyloxy)-carbonyloxirane-2-carbonyl]-N^ε -carbobenzoxy-L-lysine benzyl ester]
  ID50 (amount of inhibitor for 50% inhibition): 1.86 γ

## CCOC(=O)[C@@H](NC(=O)C1OC1C(=O)OC)[C@@H](C)O (stereo partly drawn) [EP-190, N-(3-methoxycarbonyloxirane-2-carbonyl)-L-threonine ethyl ester]
  ID50 (amount of inhibitor for 50% inhibition): 17.13 γ

## O=C(N[C@@H](CSCc1ccccc1)C(=O)OCc1ccccc1)C1OC1C(=O)OCc1ccccc1 (stereo partly drawn) [EP-191, N-(3-benzyloxycarbonyloxirane-2-carbonyl)-S-benzyl-L-cysteine benzyl ester]
  ID50 (amount of inhibitor for 50% inhibition): 5.51 γ

## CCOC(=O)C1OC1C(=O)N[C@@H](C)C(=O)OC(C)(C)C (stereo partly drawn) [EP-192, N-(3-ethoxycarbonyloxirane-2-carbonyl)-L-alanine-t-butyl ester]
  ID50 (amount of inhibitor for 50% inhibition): 40.50 γ

## CCOC(=O)C1OC1C(=O)N[C@@H](CC(=O)OCc1ccccc1)C(=O)OCc1ccccc1 (stereo partly drawn) [EP-193, N-(3-ethoxycarbonyloxirane-2-carbonyl)-L-aspartic acid dibenzyl ester]
  ID50 (amount of inhibitor for 50% inhibition): 20.50 γ

## CCOC(=O)C1OC1C(=O)N[C@@H](CC(N)=O)C(=O)OCc1ccccc1 (stereo partly drawn) [EP-194, N-(3-ethoxycarbonyloxirane-2-carbonyl)-L-asparagine benzyl ester]
  ID50 (amount of inhibitor for 50% inhibition): 22.60 γ

## CCOC(=O)[C@H](CCCCNC(=O)OCc1ccccc1)NC(=O)C1OC1C(=O)[O-].[K+] (stereo partly drawn) [EP-195, N^α -(3-carboxyoxirane-2-carbonyl)-N^ε -carbobenzoxy-L-lysine ethyl ester potassium salt]
  ID50 (amount of inhibitor for 50% inhibition): 0.43 γ

## O=C(NCCC[C@H](NC(=O)C1OC1C(=O)O)C(=O)OCc1ccccc1)OCc1ccccc1 (stereo partly drawn) [EP-196, N^α -(3-carboxyoxiane-2-carbonyl)-N^δ -carbobenzoxy-L-ornithine benzyl ester potassium salt]
  ID50 (amount of inhibitor for 50% inhibition): 0.11 γ

## O=C(NCCCC[C@H](NC(=O)C1OC1C(=O)[O-])C(=O)OCc1ccccc1)OCc1ccccc1.[K+] (stereo partly drawn) [EP-197, N^α -(3-carboxyoxirane-2-carbonyl)-N^ε -carbobenzoxy-L-lysine benzyl ester potassium salt]
  ID50 (amount of inhibitor for 50% inhibition): 0.98 γ

## COC(=O)[C@H](CCCNC(=O)OCc1ccccc1)NC(=O)C1OC1C(=O)[O-].[K+] (stereo partly drawn) [EP-198, N^α -(3-carboxyoxirane-2-carbonyl)-N^δ -carbobenzoxy-L-ornithine methyl ester potassium salt]
  ID50 (amount of inhibitor for 50% inhibition): 0.15 γ

## CCCCOC(=O)[C@H](CCCNC(=O)OCc1ccccc1)NC(=O)C1OC1C(=O)[O-].[K+] (stereo partly drawn) [EP-199, N^α -(3-carboxyoxirane-2-carbonyl)-N^δ -carbobenzoxy-L-ornithine n-butyl ester potassium salt]
  ID50 (amount of inhibitor for 50% inhibition): 0.14 γ

## COC(=O)[C@H](CCCNC(=N)N)NC(=O)C1OC1C(=O)O (stereo partly drawn) [EP-200, N-(3-carboxyoxirane-2-carbonyl)-L-arginine methyl ester]
  ID50 (amount of inhibitor for 50% inhibition): 0.88 γ

## CCOC(=O)C1OC1C(=O)N[C@@H](CCCCN)C(=O)O (stereo partly drawn) [EP-201, N-(3-ethoxycarbonyloxirane-2-carbonyl)-L-lysine]
  ID50 (amount of inhibitor for 50% inhibition): 25.51 γ

## N=C(N)NCCC[C@H](NC(=O)C1OC1C(=O)O)C(=O)O (stereo partly drawn) [EP-202, N-(3-carboxyoxirane-2-carbonyl)-L-arginine]
  ID50 (amount of inhibitor for 50% inhibition): 21.93 γ

## CCOC(=O)[C@H](CC(C)C)NC(=O)C1OC1C(=O)OCCCC1CCCC1 (stereo partly drawn) [EP-203, N-[3-(3'-cyclopentylpropyloxy)carbonyloxirane-2-carbonyl]-L-leucine ethyl ester]
  ID50 (amount of inhibitor for 50% inhibition): 0.12 γ

## O=C(NCCCC[C@H](NC(=O)C1OC1C(=O)OC1CC1)C(=O)OCc1ccccc1)OCc1ccccc1 (stereo partly drawn) [EP-204, N^α -(3-cyclopropyloxycarbonyloxirane-2-carbonyl)-N^ε-carbobenzoxy-L-lysine benzyl ester]
  ID50 (amount of inhibitor for 50% inhibition): 15.20 γ

## CC(C)[C@H](NC(=O)C1OC1C(=O)OC1CCCC1)C(=O)OCc1ccccc1 (stereo partly drawn) [EP-205, N-(3-cyclopentyloxycarbonyloxirane-2-carbonyl)-L-valine benzyl ester]
  ID50 (amount of inhibitor for 50% inhibition): 0.82 γ

## CC(OC(=O)C1OC1C(=O)N[C@@H](CCCCN)C(=O)OCc1ccccc1)C1CCCC1 (stereo partly drawn) [EP-206, N-[3-(1'-cyclopentylethoxy)-carbonyloxirane-2-carbonyl]-L-lysine benzyl ester]
  ID50 (amount of inhibitor for 50% inhibition): 0.12 γ

## O=C(CC[C@H](NC(=O)C1OC1C(=O)OC1CCCCCCC1)C(=O)OCc1ccccc1)OCc1ccccc1 (stereo partly drawn) [EP-209, N-(3-cyclooctyloxycarbonyloxirane-2-carbonyl)-L-glutamic acid dibenzyl ester]
  ID50 (amount of inhibitor for 50% inhibition): 2.45 γ

## CCOC(=O)[C@H](Cc1ccccc1)NC(=O)C1OC1C(=O)OC1C2CC3CC(C2)CC1C3 (stereo partly drawn) [EP-210, N-[3-(2'-adanatyloxy)-carbonyloxirane-2-carbonyl]-L-phenyl alanine ethyl ester]
  ID50 (amount of inhibitor for 50% inhibition): 1.12 γ

## O=C(N[C@@H](Cc1ccc(O)cc1)C(=O)OCc1ccccc1)C1OC1C(=O)OCC1CC=CCC1 (stereo partly drawn) [EP-211, N-[3-(3'-cyclohexen-1-yl)-methoxycarbonyloxirane-2-carbonyl]-L-tyrosine benzyl ester]
  ID50 (amount of inhibitor for 50% inhibition): 0.61 γ

## CCOC(=O)[C@H](Cc1ccccc1)NC(=O)C1OC1C(=O)OC1CCCCC1C (stereo partly drawn) [EP-212, N-[3-(2'-cis-methylcyclohexyloxy)carbonyloxirane-2-carbonyl]-L-phenylalanine ethyl ester]
  ID50 (amount of inhibitor for 50% inhibition): 1.21 γ

## O=C(CNC(=O)C1OC1C(=O)OC1CCCC1Cl)OCc1ccccc1 (stereo not drawn) [EP-213, N-[3-(2'-cis-chlorocyclopentyloxy)-carbonyloxirane-2-carbonyl]-glycine benzyl ester]
  ID50 (amount of inhibitor for 50% inhibition): 6.75 γ

## CC(C)C[C@H](NC(=O)C1OC1C(=O)OC1CCCC1Br)C(=O)OCc1ccccc1 (stereo partly drawn) [EP-214, N-[3-(2'-trans-bromocyclopentyloxy)-carbonyloxirane-2-carbonyl]-L-leucine benzyl ester]
  ID50 (amount of inhibitor for 50% inhibition): 0.13 γ

## COC(=O)[C@H](C)NC(=O)C1OC1C(=O)O[C@H]1CC[C@H](C)CC1 (stereo partly drawn) [EP-215, N-[3-(4'-trans-methylcyclohexyloxy)-carbonyloxirane-2-carbonyl]-L-alanine methyl ester]
  ID50 (amount of inhibitor for 50% inhibition): 3.55 γ

## CCCCOC(=O)[C@H](CC(C)C)NC(=O)C1OC1C(=O)OCc1ccco1 (stereo partly drawn) [EP-217, N-[3-furfuryloxycarbonyloxirane-2-carbonyl]-L-leucine n-butyl ester]
  ID50 (amount of inhibitor for 50% inhibition): 0.25 γ

## CC(C)(C)OC(=O)[C@H](Cc1ccccc1)NC(=O)C1OC1C(=O)OCC1CCCO1 (stereo partly drawn) [EP-218, N-[3-tetrahydrofurfuryloxycarbonyloxirane-2-carbonyl]-L-phenylalanine t-butyl ester]
  ID50 (amount of inhibitor for 50% inhibition): 1.65 γ

## CCOC(=O)[C@@H](NC(=O)C1OC1C(=O)OCc1cccc2ccccc12)C(C)C (stereo partly drawn) [EP-219]
  ID50 (amount of inhibitor for 50% inhibition): 2.12 γ
